Legend:
Format in all cases: ADME, organism-based
[1] = Half life in Sprague-Dawley rat at 2 mg/kg, iv; parameters: dose 2 mg/kg, route intravenous; conditions: in vivo
[2] = Oral bioavailability in Sprague-Dawley rat at 2 mg/kg; conditions: in vivo
[3] = AUC (0 to infinity) in Sprague-Dawley rat at 2 mg/kg, po; parameters: time infinity, dose 2 mg/kg, route oral; conditions: plasma
[4] = Volume of distribution at steady state in Sprague-Dawley rat at 2 mg/kg, iv; parameters: dose 2 mg/kg, route intravenous; conditions: in vivo, read-out: Vdss
[5] = Clearance in Sprague-Dawley rat at 2 mg/kg, iv; parameters: dose 2 mg/kg, route intravenous; conditions: in vivo

half-life [1] [h]	bioavailability [2] [%]	AUC(0-inf) [3] [ng·h/mL]	Vd [4] [L/kg]	clearance [5] [mL/min/kg]	Structure (SMILES)
3.5	53	6550	0.89	2.67	O=C(NC1CC1)c1ccc(Cl)c(Nc2nncc3c2cnn3-c2ccc(F)cc2F)c1
2.8	19	671	1.6	9.67	Cc1ccc(C(=O)NC2CC2)cc1Nc1nncc2c1cnn2-c1c(F)cccc1F
2.2	91	3880	1.4	7.83	Cc1nnc(Nc2cc(C(=O)NC3CC3)ccc2Cl)c2cnn(-c3c(F)cccc3F)c12
3.6	75	6830	1.1	3.67	O=C(NC1CC1)c1ccc(Cl)c(Nc2nncc3c2cnn3-c2c(F)cccc2F)c1

From ChEMBL document CHEMBL1154963, “Part 2: Structure-activity relationship (SAR) investigations of fused pyrazoles as potent, selective and orally available inhibitors of p38alpha mitogen-activated protein kinase” (Bioorg Med Chem Lett, 2010)
